Test results from article PMC7470027, “Synthesis and structure-activity relationships of novel 5-(hydroxamic acid)methyl oxazolidinone derivatives as 5-lipoxygenase inhibitors” (Journal of Enzyme Inhibition and Medicinal Chemistry, 2020).
Read-outs that look alike come from different tables or passages of the source.

Key:
[1] = test system: 5-LO product LTC4 from allergen/IgE-activated bone marrow-derived mouse mast cells (BMMC); experiment: Inhibition of 5-LO product LTC4 from allergen/IgE-activated bone marrow-derived mouse mast cells (BMMC); assay type: cell-based; details: anti-DNP IgE/DNP-BSA-activated BMMC, 95% confidence interval in brackets, read-out: Mouse mast cell LTC4 IC50 (CI)
Description: Bone marrow-derived mast cells (BMMC) were generated from pathogen-free 5 to 7-weeks-old male Balb/c mice according to the method of Davis et al.[28]. Essentially, bone marrow cells were obtained by flushing the femoral bone marrow and the recovered cells cultured in RPMI 1640 medium supplemented with 10% FBS, 100 U/ml penicillin, and 100 µg/ml streptomycin, 25 mM HEPES, 1.0 mM sodium pyruvate, 0.1 mM nonessential amino acids, 0.0035% 2-mercaptoethanol, and 30 ng/ml mouse recombinant IL-3, with culture medium, replaced every 2 days. Cells were used after 4–8 weeks of culture, by which time at least 97% of the cells would have differentiated into mast cells, as routinely obtained in our laboratory.
The generated BMMCs were seeded at 5 × 10^4 cells/well in a 96-well flat-bottom culture plate and passively sensitised overnight with 0.5 µg/ml anti-DNP monoclonal IgE antibody. The cells were then washed twice to remove any unbound antibody and subsequently resuspended in reaction buffer (135 mM NaCl, 5 mM KCl, 1.8 mM CaCl2, 1 mM MgCl2, 5.6 mM glucose, 0.05% BSA and 20 mM HEPES, pH 7.4). They were then pre-incubated with the test compounds (0.001 − 30 μM) or the solvent (0.05% DMSO) for 15 min before being stimulated with the specific antigen, DNP-BSA (10–30 ng/ml). After 30 min incubation at 37 °C, the amount of LTC4 released into the supernatant was determined by ELISA as described below.
(§1) Appropriately diluted supernatants were assayed for the released products – LTs (LTB4 and LTC4), by the enzyme immunoassay (EIA) method using assay kits supplied by R&D Systems (Minneapolis, MN) and following the manufacturer’s instructions.
(§2) All data were analysed using GraphPad Prism software (GraphPad Software, San Diego, CA). […] Differences between experimental groups were first analysed by one-way ANOVA, followed by Bonferroni’s post-hoc test. A p-value of less than 0.05 was taken as statistically significant.

[2] = test system: 5-LO-dependent generation of LTB4 from activated human whole blood; experiment: Inhibition of 5-LO product LTB4 from activated human whole blood (LPS/FMLP); assay type: cell-based; details: LPS-primed, FMLP-stimulated human whole blood; 95% confidence interval in brackets; read-out: Human whole blood LTB4 IC50 (CI)
Description: All compounds were evaluated for inhibitory activity against the 5-LO-dependent generation of LTB4 from activated human whole blood. With ethical approval from the Health Sciences Centre Ethical Committee of Kuwait University, heparinised fresh human blood samples from apparently healthy individuals of both sexes were obtained from the Kuwait Central Blood Bank. All donors gave informed consent and the work was carried out in accordance with the “Declaration of Helsinki” for experiments involving human subjects. Aliquots of 185 µl of whole blood were dispensed into each well of a 96-well culture plate containing 5 µl of the priming agent, LPS (1 µg/ml final concentration). […] After further incubation for 15 min at 37 °C, 5 µl of FMLP (1 µM final concentration) was added to stimulate LT production. The reaction was stopped 15 min later, and the supernatants were recovered by centrifugation and stored at −40 °C pending analysis of LTB4 content.
as §1, §2

[3] = test system: 5-LO product LTC4 from isolated human monocytes; experiment: Inhibition of 5-LO product LTC4 from isolated human monocytes (A23187); assay type: cell-based; details: calcium ionophore A23187, 95% confidence interval in brackets, read-out: Human monocyte LTC4 IC50 (CI)
Description: Mononuclear cells were first isolated from heparinised blood using the Ficoll-Hypaque gradient centrifugation method. Monocytes were subsequently purified by adherence to plastic according to standard protocols. The purity of the adherent monocytes (CD14+) was routinely confirmed by flow cytometry to be >95% and viability (by trypan blue exclusion method) was routinely >97%. Adherent monocytes were then washed and incubated in 190 µl culture medium RPMI-1640 supplemented with 100 U/ml penicillin, 100 µg/ml streptomycin and 10% heat-inactivated foetal bovine serum (Sigma-Aldrich, St Louis, MO). […] After further incubation for 15 min, the culture supernatants were recovered by centrifugation and stored at −40 °C pending LTC4 determination.
as §1, §2

[4] = test system: leukotriene (LT) biosynthesis / 5-LO; experiment: Overall activity across the four in vitro test systems (three cell-based LT release assays and 5-LO); details: for Activity across the in vitro test systems (in words): cell-based systems and cell-free 5-LO
Description: Furthermore, in order to confirm that the in vitro inhibitory activity of the compounds was not due to the direct toxic effects on the cells, the effect of the compounds on the viability of isolated human monocytes after 3 h and 24 h treatment was performed. Finally, in vivo anti-inflammatory studies were performed using the zymosan-induced peritoneal inflammation model in mice, which is a well-known model in which the LTs are known to play a critical role[26].
The inhibitory activity data for the tested compounds obtained in three cell-based in vitro test systems - LTB4 release from human whole blood, LTC4 release from isolated human monocytes and LTC4 release from IgE/antigen-activated mouse mast cells, are shown in Table 1. Similar data on the direct inhibitory effect on the enzymatic activity of recombinant human 5-LO, together with the calculated Clog P (log of partition coefficient) values, which is an indication of the lipophilicity of each compound, are also shown in Table 1.

[5] = molecular target: T1, recombinant human 5-LO (Homo sapiens, UniProt P09917); experiment: Direct inhibition of 5-LO activity in a cell-free assay (H2DCF-DA fluorescence); assay type: biochemical; details: for IC50: cell-free, recombinant human 5-LO, 95% confidence interval in brackets
T1 sequence (P09917 1-674): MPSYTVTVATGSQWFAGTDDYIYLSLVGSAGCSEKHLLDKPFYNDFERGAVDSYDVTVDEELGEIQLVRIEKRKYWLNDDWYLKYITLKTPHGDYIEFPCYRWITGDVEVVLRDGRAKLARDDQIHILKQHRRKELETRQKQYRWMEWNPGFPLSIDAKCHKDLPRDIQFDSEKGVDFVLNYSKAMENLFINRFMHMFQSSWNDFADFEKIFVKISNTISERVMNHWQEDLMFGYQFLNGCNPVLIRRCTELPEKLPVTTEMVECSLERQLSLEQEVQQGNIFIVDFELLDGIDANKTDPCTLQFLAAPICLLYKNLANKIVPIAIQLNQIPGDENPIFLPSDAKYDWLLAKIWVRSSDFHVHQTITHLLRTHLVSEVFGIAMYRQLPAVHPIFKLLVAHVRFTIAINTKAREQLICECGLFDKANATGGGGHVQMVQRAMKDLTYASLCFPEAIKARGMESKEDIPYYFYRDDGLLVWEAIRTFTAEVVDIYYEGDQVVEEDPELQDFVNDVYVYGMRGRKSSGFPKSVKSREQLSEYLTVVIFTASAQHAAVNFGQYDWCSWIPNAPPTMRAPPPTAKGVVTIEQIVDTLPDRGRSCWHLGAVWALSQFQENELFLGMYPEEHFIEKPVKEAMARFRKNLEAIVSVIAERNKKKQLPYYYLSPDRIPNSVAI
Description: The assay was based on the oxidation of the dye 2′,7′-dichlorodihydrofluorescein diacetate (H2DCF-DA) to a highly fluorescent product by 5-LO enzymatic products. H2DCF-DA (60 µM) was first pre-cleaved by incubating with 450 mU/ml recombinant human 5-LO enzyme in Tris buffer (containing 50 mM Tris, pH = 7.5, 2 mM EDTA, 2 mM CaCl2, 1 mM DTT and 0.6 U/ml glutathione peroxidase) for 10 min at room temperature. […] After 10 min incubation at room temperature, the reaction was started with the addition of 50 µl of substrate solution (Tris buffer containing 20 µM ATP and 20 µM arachidonic acid (AA). After a further 20 min, the reaction was terminated with 100 µl acetonitrile. Fluorescence was read at 500 nm excitation and 520 nm emission, with Novostar^R microplate reader (BMG Labtech, Offenburg, Germany). Appropriate controls, including 100 µM nordihydroguaiaretic acid (NDGA), were included to isolate only the 5-LO-attributable, NDGA-inhibitable RFU values.
as §2

[6] = read-out: Direct inhibition of 5-LO activity. IC50 (CI)

Row | Compound | IC50 ([1]; Mus musculus) | IC50 [2] | IC50 ([3]; Monocyte) | Activity across the in vitro test systems (in words) [4] | IC50 [1] | IC50 [3] | IC50 [5, 6] | IC50 [5] | melting point | Inhibition of isolated 5-LO enzyme activity (in words) ([5]; cell-free experiments) | IC50 ([4]; summary statements, in vitro test systems, read-out: IC50 (test system not specified / across test systems))
1 | CC(c1cc2ccccc2s1)N(O)C(N)=O (racemic) [Zileuton, (±)1–(1-(benzo[b]thiophen-2-yl)-ethyl)-1-hydroxyurea, reference compound] | 0.4 µM | 0.7 µM | 0.5 µM |  |  |  |  |  |  |  | 
2 | O=C(C1CC1)N(O)C[C@H]1CN(c2ccc(N3CCOCC3)c(F)c2)C(=O)O1 [PH-211] |  | 1.3 µM |  | active in all four test systems | 8.7 µM | 7.5 µM | 3.5 µM |  |  |  | 
3 | CC(C)CC(=O)ON(C[C@H]1CN(c2ccc(N3CCOCC3)c(F)c2)C(=O)O1)C(=O)CC(C)C [PH-237, (R)-N-((3-(3-fluoro-4-morpholinophenyl)-2-oxooxazolidin-5-yl)methyl)-3-methyl-N-((3-methylbutanoyl)oxy)butanamide] | > 50 µM | > 50 µM | > 50 µM | inactive in both systems |  |  |  | > 30 µM | 89 to 90 °C |  | 
4 | CC(C)CC(=O)N(O)C[C@H]1CN(c2ccc(N3CCOCC3)c(F)c2)C(=O)O1 [PH-239, (R)-N-((3-(3-fluoro-4-morpholinophenyl)-2-oxooxazolidin-5-yl)methyl)-N-hydroxy-3-methylbutanamide] | 3.1 µM | 3.5 µM | 8 µM | active in all four test systems |  |  |  | 4.7 µM | 122 to 124.5 °C |  | 
5 | CCCCC(=O)N(O)C[C@H]1CN(c2ccc(N3CCOCC3)c(F)c2)C(=O)O1 [PH-241, (R)-N-((3-(3-fluoro-4-morpholinophenyl)-2-oxooxazolidin-5-yl)methyl)-N-hydroxypentanamide] | 2.8 µM | 2.2 µM | 3.2 µM | active in all four test systems |  |  |  | 3.3 µM |  |  | 
6 | O=C(C1CCCC1)N(O)C[C@H]1CN(c2ccc(N3CCOCC3)c(F)c2)C(=O)O1 [PH-244, (R)-N-((3-(3-fluoro-4-morpholinophenyl)-2-oxooxazolidin-5-yl)methyl)-N-hydroxycyclopentanecarboxamide] |  | 5.5 µM |  |  |  |  |  |  |  |  | 
7 | O=C(C1CCC1)N(O)C[C@H]1CN(c2ccc(N3CCOCC3)c(F)c2)C(=O)O1 [PH-245, (R)-N-((3-(3-fluoro-4-morpholinophenyl)-2-oxooxazolidin-5-yl)methyl)-N-hydroxycyclobutanecarboxamide] |  | 3.4 µM |  |  |  |  |  |  |  |  | 
8 | CCCCCC(=O)ON(C[C@H]1CN(c2ccc(N3CCOCC3)c(F)c2)C(=O)O1)C(=O)CCCCC [PH-246] |  | 1.5 µM |  |  | 3.3 µM | 7.1 µM | 21.6 µM |  |  | very weak | 
9 | CCCCCC(=O)N(O)C[C@H]1CN(c2ccc(N3CCOCC3)c(F)c2)C(=O)O1 [PH-247, (R)-N-((3-(3-fluoro-4-morpholinophenyl)-2-oxooxazolidin-5-yl)methyl)-N-hydroxyhexanamide] | 2.9 µM | 2.3 µM | 2.5 µM | active in all four test systems |  |  |  | 3.4 µM | 118.5 to 120.5 °C |  | 
10 | CCCCCCCC(=O)N(O)C[C@H]1CN(c2ccc(N3CCOCC3)c(F)c2)C(=O)O1 [PH-251, (R)-N-((3-(3-fluoro-4-morpholinophenyl)-2-oxooxazolidin-5-yl)methyl)-N-hydroxyoctanamide] | 0.2 µM | 1.9 µM | 2.4 µM | active in all four test systems |  |  |  | 1.6 µM |  |  | < 1 µM
